Experimental data taken from patent US6949536B2, “Sulfonylbenzene compounds as anti-inflammatory/analgesic agents” (Pfizer, Inc., priority 1998, dated 2005).
Counter-ions that a name gives are not always drawn.

| Compound | melting point [°C] |
| --- | --- |
| Cc1cn(-c2ccc(S(N)(=O)=O)c(F)c2)c(-c2ccc(-c3cscn3)cc2)n1 [Example 179, 2-Fluoro-4-[4-methyl-2-[4-(4-thiazolyl)phenyl]-1H-imidazol-1-yl]benzenesulfonamide] | 145 to 147 |
| Cc1nc(-c2ccc(-c3ccco3)cc2)c(-c2ccc(S(C)(=O)=O)cc2)o1 [Example 51, 4-[4-(2-Furyl)phenyl]-2-methyl-5-[4-(methylsulfonyl)phenyl]oxazole] | 143 to 144 |
| CCOC(=O)c1cc(-c2ccc(-c3ccco3)cc2)n(-c2ccc(S(C)(=O)=O)cc2)n1 [Example 65, Ethyl 5-[4-(2-furyl)phenyl]-1-[4-(methylsulfonyl)phenyl]-1H-pyrazole-3-carboxylate] | 180.9 to 181.1 |
| CS(=O)(=O)c1ccc(C2=C(c3ccc(-c4cccs4)cc3)C(=O)OC2)cc1 [Example 33, 3-[4-(2-Thienyl)phenyl]-4-[4-(methylsulfonyl)phenyl]-2-(5H)-furanone] | 198 to 201 |
| CS(=O)(=O)c1ccc(-n2cc(C(F)(F)F)nc2-c2ccc(-c3cccs3)cc2)cc1 [Example 52, 1-[4-(Methylsulfonyl)phenyl]-2-[4-(2-thienyl)phenyl]-4-(trifluoromethyl)-1H-imidazole] | 95 to 97 |
| Cc1ccc(-c2ccc(S(C)(=O)=O)cc2)n1-c1ccc(-c2ccco2)cc1 [Example 44, 1-[4-(2-Furyl)phenyl]-2-methyl-5-[4-(methylsulfonyl)phenyl]-1H-pyrrole] | 145 to 147 |
| CS(=O)(=O)c1ccc(-n2nc(C(F)(F)F)cc2-c2ccc(-c3cscn3)c(F)c2)cc1 (as salt: hydrochloride) [Example 124, 4-{2-Fluoro-4-[1-[4-(methylsulfonyl)phenyl]-3-(trifluoromethyl)-1H-pyrazol-5-yl]phenyl}-1,3-thiazole] | 176 to 178 |
| Cc1nc(-c2ccc(-c3cscn3)c(C)c2)c(-c2ccc(S(C)(=O)=O)c(F)c2)o1 [Example 173, 5-[3-Fluoro-4-(methylsulfonyl)phenyl]-2-methyl-4-[3-methyl-4-(1,3-thiazol-4-yl)phenyl]-1,3-oxazole] | 177 to 178 |

The next lines start with the values.

| melting point [°C] | Compound |
| --- | --- |
| 167 to 168 | CN(C)C(=O)c1cc(-c2ccc(-c3ccco3)cc2)n(-c2ccc(S(C)(=O)=O)c(F)c2)n1 (as salt: hydrochloride) [Example 133, N,N-Dimethyl-1-[3-fluoro-4-(methylsulfonyl)phenyl]-5-[4-(2-furyl)phenyl]-1H-pyrazole-3-carboxamide] |
| 155 to 156 | CS(=O)(=O)c1ccc(-n2nccc2-c2ccc(-c3ccco3)cc2)cc1F [Example 162, 1-[3-Fluoro-4-(methylsulfonyl)phenyl]-5-[4-(2-furyl)phenyl]-1H-pyrazole] |
| 256 to 257 | CCOc1cc(-n2nc(C(=O)O)cc2-c2ccc(-c3ccco3)cc2)ccc1S(C)(=O)=O [Example 127, 1-[3-Ethoxy-4-(methylsulfonyl)phenyl]-5-[4-(2-furyl)phenyl]-1H-pyrazole-3-carboxylic Acid] |
